The values that follow come from patent US8541601B2, “Piperazine dithioctate and pharmaceutical composition comprising the same” (Celltrion Chemical Research Institute, priority 2009, dated 2013).

The format of data set [1] is physicochemical. To be noted: for remaining rate of the active ingredient, Initial: 0 h; for remaining rate of the active ingredient, 3 days: 72 h; for remaining rate of the active ingredient, 7 days: 168 h; for remaining rate of the active ingredient, 14 days: 336 h; for remaining rate of the active ingredient, 28 days: 672 h.
Data set [2] has as its system rats. The conditions noted are these: rat, in vivo; cited from earlier work.

As to `O=C(O)CCCCC1CCSS1` (racemic) [Piperazine dithioctate, Piperazine Dithioctate], in data set [1], the “remaining rate of the active ingredient, Initial” value (shortened to “remaining rate … Initial”) is reported as 100.0; the remaining rate of the active ingredient, 3 days came out at 100%; the remaining rate of the active ingredient, 7 days came to 100%; the remaining rate of the active ingredient, 14 days worked out at 100%. In addition, the remaining rate of the active ingredient, 28 days in data set [1] was determined as 100%.

For the compound `C1CNCCN1` [piperazine], the “LD50 (the lethal dose causing death in 50% of rats on oral administration)” value in data set [2] is on record as 1900 mg/kg.

Turning to `O=C(O)CCCCC1CCSS1` (stereo not shown) [Thioctic acid], in data set [1], the “remaining rate … Initial” value turned out to be 100.0; the remaining rate of the active ingredient, 3 days was 99.8%; the remaining rate of the active ingredient, 7 days stood at 99.6%; the remaining rate of the active ingredient, 14 days worked out at 98.9%. In data set [1], this compound returned a remaining rate of the active ingredient, 28 days of 97.8%.

For the compound `NC(CO)(CO)CO.O=C(O)CCCCC1CCSS1` (stereo not shown) [Tromethamine thioctate, Tromethamine Thioctate], in data set [1], the “remaining rate … Initial” value is 100.0; the remaining rate of the active ingredient, 3 days was 100%; the remaining rate of the active ingredient, 7 days came to 100%; the remaining rate of the active ingredient, 14 days turned out to be 100%. The compound further had a remaining rate of the active ingredient, 28 days in data set [1] of 100%.
